This passage reports Activity results from ChEMBL document CHEMBL1139335, “Enaminones 8: CoMFA and CoMSIA studies on some anticonvulsant enaminones” (Bioorg Med Chem, 2009).

The source made the active and inactive calls. The calls are words filed in the database; no cut-off is given here.

In one experiment the test system is Mus musculus. The experiment in a line: Anticonvulsant activity in mouse assessed as inhibition of pentylenetetrazole-induced seizure at 100 mg/kg. It is filed as functional, organism-based. Details: dose 100 mg/kg.
Take `NC1=CC(=O)CCC1`: the outcome was Active.

`CC1(C)CC(=O)C=C(NC(=O)c2ccc(C#N)cc2)C1`: the result was Active.

For `N#Cc1ccc(C(=O)NC2=CC(=O)CCC2)cc1`, the result was Active.

`CCOC(=O)C1C(=O)C=C(Nc2ccc(Cl)cc2)CC1C` (stereo not drawn): the outcome was Active.

For the molecule `COc1ccc(C(=O)NC2=CC(=O)CC(C)C2)cc1` (stereo not drawn), the result was Active.

Consider `COC(=O)C1C(=O)C=C(Nc2ccc(C(F)(F)F)cc2)CC1(C)C` (stereo not drawn), for which the outcome was Active.

In the case of `CCOC(=O)C1C(=O)C=C(NC(=O)c2ccc(C)cc2)CC1C` (stereo not drawn), the result was Active.

On to `CCOC(=O)C1C(=O)C=C(Nc2ccc(C#N)cc2)CC1C` (stereo not drawn), for which the result was Active.

In a further experiment the test system is Mus musculus. The experiment in a line: Anticonvulsant activity in mouse assessed as inhibition of pentylenetetrazole-induced seizure at 100 to 300 mg/kg. It is filed as functional, organism-based.
As to `CCOC(=O)C1C(=O)C=C(Nc2ccc(F)cc2)CC1C` (stereo not drawn), the outcome was Active.

Regarding `CCOC(=O)C1C(=O)C=C(Nc2ccc(Cl)cc2Cl)CC1C` (stereo not drawn), the outcome was Active.

With `CC(=O)/C=C(\C)Nc1ccc(Br)cc1`, the result was Active.

Take `CC(=O)/C=C(\C)Nc1ccc(I)cc1`: the outcome was Active.

Turning to `CCOC(=O)C1CCC(Nc2cccc(OC(F)(F)F)c2)=CC1=O` (stereo not drawn), the outcome was Active.

On to `COC(=O)C1C(=O)C=C(Nc2ccc(Cl)c(Cl)c2)CC1C` (stereo not drawn), for which the result was Active.

For the molecule `CCOC(=O)C1C(=O)C=C(Nc2cc(C)ccc2OC)CC1C` (stereo not drawn), the result was Active.

For the molecule `CCc1ccc(N/C(C)=C/C(C)=O)cc1`, the result was Active.

On to `COc1ccc(N/C(C)=C/C(C)=O)cc1`, for which the result was Active.

In the case of `CC1CC(=O)C=C(Nc2cccc(Br)c2)C1` (stereo not drawn), the result was Active.

On to `COC(=O)C1C(=O)C=C(Nc2ccc(Cl)cn2)CC1C` (stereo not drawn), for which the result was Active.

As for `CC1CC(=O)C=C(Nc2ccc(F)cc2)C1` (stereo not drawn), the result was Active.

For the molecule `COC(=O)C1C(=O)C=C(Nc2ccccc2F)CC1C` (stereo not drawn), the outcome was Active.

On to `COC(=O)C1C(=O)C=C(Nc2ccc(Cl)cc2)CC1(C)C` (stereo not drawn), for which the outcome was Active.

Turning to `COC(=O)C1C(=O)C=C(Nc2ccc(OC(F)(F)F)cc2)CC1C` (stereo not drawn), the outcome was Active.

On to `CCOC(=O)C1C(=O)C=C(Nc2ccc(Cl)cn2)CC1C` (stereo not drawn), for which the outcome was Active.

As for `CC1CC(=O)C=C(Nc2ccc(Cl)cc2)C1` (stereo not drawn), the result was Active.

Turning to `COC(=O)C1C(=O)C=C(Nc2ccc(Br)cc2)CC1C` (stereo not drawn), the result was Active.

`CCOC(=O)C1C(=O)C=C(Nc2ccc(Cl)c(Cl)c2)CC1C` (stereo not drawn): the outcome was Active.

On to `CC1CC(=O)C=C(Nc2ccc(OC(F)(F)F)cc2)C1` (stereo not drawn), for which the result was Active.

In the case of `CCOC(=O)C1C(=O)C2=C(CC1C)Nc1ccc(Cl)cc1S2` (stereo not drawn), the result was Active.

`CC1CC(=O)C=C(Nc2cccc(Cl)c2)C1` (stereo not drawn): the result was Active.

Consider `COC(=O)C1C(=O)C=C(Nc2ccc(F)cc2)CC1C` (stereo not drawn), for which the result was Active.

`CC(=O)/C=C(\C)Nc1ccc(Cl)cc1`: the outcome was Active.

For the molecule `COC(=O)C1C(=O)C=C(Nc2ccc(C(F)(F)F)cc2)CC1C` (stereo not drawn), the outcome was Active.
